“Also recorded” adds a separate entry of the source. Read-outs that look alike come from different tables or passages of the source.
Assays:
[1] = test system: 24-hydroxylase (24Ohase) gene promoter in ROS 17/2.8 (bone) cells; assay: In vitro transcription assay (24-hydroxylase promoter luciferase reporter); type: cell-based; settings: for EC50: 24-hydroxylase (CYP-24) promoter driving luciferase reporter, read-out: EC50, transcriptional activity in bone cells; for transcriptional activity in bone cells (in words): FIG. 3
Procedure: Transcription activity was measured in ROS 17/2.8 (bone) cells that were stably transfected with a 24-hydroxylase (24Ohase) gene promoter upstream of a luciferase reporter gene (Arbour et al., 1998). Cells were given a range of doses. Sixteen hours after dosing the cells were harvested and luciferase activities were measured using a luminometer.
RLU=relative luciferase units.

[2] = test system: Human promyelocytic leukemia (HL60) cells; assay: HL-60 differentiation (nitro blue tetrazolium reduction); type: cell-based; settings: for EC50: HL-60 cells into monocytes, read-out: EC50, HL-60 cell differentiation
Procedure: The study drugs were dissolved in ethanol and the concentrations determined using UV spectrophotometry. Serial dilutions were prepared so that a range of drug concentrations could be tested without changing the final concentration of ethanol (≦0.2%) present in the cell cultures.
Human promyelocytic leukemia (HL60) cells were grown in RPMI-1640 medium containing 10% fetal bovine serum. The cells were incubated at 37° C. in the presence of 5% CO2.
HL60 cells were plated at 1.2×10^5 cells/ml. Eighteen hours after plating, cells in duplicate were treated with drug. Four days later, the cells were harvested and a nitro blue tetrazolium reduction assay was performed (Collins et al., 1979; J. Exp. Med. 149:969-974). The percentage of differentiated cells was determined by counting a total of 200 cells and recording the number that contained intracellular black-blue formazan deposits. Verification of differentiation to monocytic cells was determined by measuring phagocytic activity (data not shown).

[3] = biological target: T1, full-length recombinant rat vitamin D receptor (Rattus norvegicus, UniProt P13053); assay: Vitamin D receptor binding (competition with [3H]-1,25(OH)2D3)
T1 construct: Full-length recombinant rat receptor was expressed in E. coli; histidine tag (C); made in house; host or cells: E. coli BL21 (DE3) Codon Plus RTL
T1 sequence (P13053 1-423): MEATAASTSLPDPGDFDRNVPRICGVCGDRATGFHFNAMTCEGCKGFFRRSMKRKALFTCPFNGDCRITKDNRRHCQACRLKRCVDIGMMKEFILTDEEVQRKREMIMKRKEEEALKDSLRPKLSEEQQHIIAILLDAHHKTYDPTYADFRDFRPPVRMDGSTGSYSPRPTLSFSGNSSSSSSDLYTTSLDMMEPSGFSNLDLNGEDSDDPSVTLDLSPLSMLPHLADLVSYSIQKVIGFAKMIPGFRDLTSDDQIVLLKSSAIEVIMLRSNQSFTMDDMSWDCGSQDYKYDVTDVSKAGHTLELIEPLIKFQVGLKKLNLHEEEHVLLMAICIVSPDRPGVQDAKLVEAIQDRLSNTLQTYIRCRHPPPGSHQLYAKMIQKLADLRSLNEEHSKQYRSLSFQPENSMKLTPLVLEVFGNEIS
Procedure: Full-length recombinant rat receptor was expressed in E. coli BL21 (DE3) Codon Plus RTL cells and purified to homogeneity using two different column chromatography systems. The first system was a nickel affinity resin that utilizes the C-terminal histidine tag on this protein. The protein that was eluted from this resin was further purified using ion exchange chromatography (S-Sepharose Fast Flow). Aliquots of the purified protein were quick frozen in liquid nitrogen and stored at −80° C. until use. For use in binding assays, the protein was diluted in TEDK50 (50 mM Tris, 1.5 mM EDTA, pH7.4, 5 mM DTT, 150 mM KCl) with 0.1% Chaps detergent. The receptor protein and ligand concentration were optimized such that no more than 20% of the added radiolabeled ligand was bound to the receptor.
Radiolabeled and unlabeled ligands were added to 100 mcl of the diluted protein at a final ethanol concentration of ≦10%, mixed and incubated overnight on ice to reach binding equilibrium. The following day, 100 mcl of hydroxylapatite slurry (50%) was added to each tube and mixed at 10-minute intervals for 30 minutes. The hydroxylapaptite was collected by centrifugation and then washed three times with Tris-EDTA buffer (50 mM Tris, 1.5 mM EDTA, pH 7.4) containing 0.5% Titron X-100. After the final wash, the pellets were transferred to scintillation vials containing 4 ml of Biosafe II scintillation cocktail, mixed and placed in a scintillation counter. Total binding was determined from the tubes containing only radiolabeled ligand.

EC50 [1] [nM] | EC50 ([2]; Homo sapiens) [nM] | Ki ([3]; full-length recombinant rat vitamin D receptor, read-out: Ki, competition with [3H]-1,25(OH)2D3 for binding to VDR) [nM] | VDR affinity, times less potent than 1,25-(OH)2D3 ([3]; relative to 1,25-(OH)2D3) [times] | Structure (SMILES) | EC50 [2] [nM] | VDR binding activity (in words) ([3]; FIG. 1) | transcriptional activity in bone cells (in words) [1] | HL-60 cell differentiation activity (in words) ([2]; FIG. 2) | transcription of the 24-hydroxylase gene, times less potent than 1,25-(OH)2D3 ([1]; relative to 1,25-(OH)2D3) [times] | gene transactivation, lower potency than the native hormone ([1]; relative to the native hormone) [fold] | HL-60 cell differentiation, times less potent than the natural hormone ([2]; relative to the natural hormone) [times]
> 1000 | > 1000 | – | – | C[C@H](CCCC(C)(C)O)C1CCC2/C(=C/C=C3\C[C@@H]4CCC=C4[C@H](O)C3)CCC[C@@]21C (stereo partly drawn) [DO-REVA, 1,2-cyclopentene-25-hydroxy-19-nor-vitamin D3] | – | little to no binding affinity; also recorded: little to no receptor binding activity | weak transcriptional activity; also recorded: measurable transcription activity at the higher concentrations tested; also recorded: measurable transcriptional activity at the higher concentrations tested | little to no ability to induce differentiation; also recorded: little to no cellular differentiation activity | – | – | –
10 | 30 | 2 | ~20 | C[C@H](CCCC(C)(C)O)C1CCC2/C(=C/C=C3/C[C@@H]4CCC=C4[C@H](O)C3)CCC[C@@]21C (stereo partly drawn) [DO-REVB, 3,2-cyclopentene-1α-25-dihydroxy-19-nor-vitamin D3] | – | – | weak transcriptional activity | – | ~20 | 2 | ~10

Structure (SMILES) | EC50 [1] [nM] | EC50 ([2]; Homo sapiens) [nM] | Ki ([3]; full-length recombinant rat vitamin D receptor, read-out: Ki, competition with [3H]-1,25(OH)2D3 for binding to VDR) [nM] | VDR affinity, times less potent than 1,25-(OH)2D3 ([3]; relative to 1,25-(OH)2D3) [times] | EC50 [2] [nM] | VDR binding activity (in words) ([3]; FIG. 1) | transcriptional activity in bone cells (in words) [1] | HL-60 cell differentiation activity (in words) ([2]; FIG. 2) | transcription of the 24-hydroxylase gene, times less potent than 1,25-(OH)2D3 ([1]; relative to 1,25-(OH)2D3) [times] | gene transactivation, lower potency than the native hormone ([1]; relative to the native hormone) [fold] | HL-60 cell differentiation, times less potent than the natural hormone ([2]; relative to the natural hormone) [times]
C=C1/C(=C\C=C2/CCC[C@]3(C)[C@@H]([C@H](C)CCCC(C)(C)O)CC[C@@H]23)C[C@@H](O)C[C@@H]1O [1α,25-dihydroxyvitamin D3, reference compound] | 0.2 | – | – | – | 2 | – | – | – | – | – | –

Reference: patent US8217023B2, “19-nor-vitamin D analogs with 1,2- or 3,2-cyclopentene ring” (Wisconsin Alumni Research Foundation, priority 2009, dated 2012)
